From article PMC7531004, “Discovery of gramicidin A analogues with altered activities by multidimensional screening of a one-bead-one-compound library” (Nature Communications, 2020)
Where a SMILES comes first, the peptide text is derived from it. [ ]: non-standard residue; d: D form. The star is where a group is joined. NHCH2CH2OH = OCCN*; For = O=C*

Test system: P388 mouse leukemia cells
Conditions: 92 h
In short: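 First, library peptide stocks are diluted 250-fold in RPMI1640 with 10% heat-inactivated FBS. Next, they are mixed with P388 cells to give 1 × 10^4 cells/mL and incubated 92 h at 37 °C, 5% CO2. Finally, viability (%) is scored by WST-1 absorbance at 415 nm.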

CC(C)C[C@@H](NC(=O)[C@H](C)NC(=O)CNC(=O)[C@@H](NC=O)C(C)C)C(=O)N[C@@H](C)C(=O)N[C@@H](C(=O)N[C@H](C(=O)N[C@@H](C(=O)N[C@@H](Cc1c[nH]c2ccccc12)C(=O)N[C@H](CC(C)C)C(=O)N[C@@H](Cc1c[nH]c2ccccc12)C(=O)N[C@H](CC(C)C)C(=O)N[C@@H](Cc1c[nH]c2ccccc12)C(=O)N[C@H](CC(C)C)C(=O)N[C@@H](Cc1c[nH]c2ccccc12)C(=O)NCCO)C(C)C)C(C)C)C(C)C [compound 1, Gramicidin A] (For-VGA[dL]A[dV]V[dV]W[dL]W[dL]W[dL]W-NHCH2CH2OH)
cell viability/%: 100.0%
